Experimental findings from ChEMBL document CHEMBL5257023, “Identification of leads for antiproliferative activity on MDA-MB-435 human breast cancer cells through pharmacophore and CYP1A1-mediated metabolism” (Eur J Med Chem, 2016) are described below.

Where a name gives a salt, the structure may show the parent alone.

In assay [1] the test system is MCF7. The assay can be described thus: Anticancer activity against human MCF7 cells assessed as inhibition of cell growth. The assay is classed as functional, cell-based.
Assay [2] deals with MDA-MB-468. In words: Anticancer activity against human MDA-MB-468 cells assessed as inhibition of cell growth incubated for 48 hrs by SRB assay. It counts as functional. (In general: The SRB assay estimates cell density from bound dye.)
The subject of assay [3] is MCF7. In words: Anticancer activity against human MCF7 cells assessed as inhibition of cell growth incubated for 48 hrs by SRB assay. The assay is classed as functional.
For assay [4], the system named is MDA-MB-435. The assay can be described thus: Anticancer activity against human MDA-MB-435 cells assessed as inhibition of cell growth incubated for 48 hrs by SRB assay. It counts as functional.
Assay [5] has as its system NCI-H226. In words: Anticancer activity against human NCI-H226 cells assessed as inhibition of cell growth incubated for 48 hrs by SRB assay. It counts as functional.
The test system of assay [6] is MDA-MB-468. The assay can be described thus: Anticancer activity against human MDA-MB-468 cells assessed as cell growth at 0.1 uM incubated for 48 hrs by SRB assay. The note with it: read-out: Activity. It counts as functional.
Assay [7] concerns MDA-MB-468. The assay can be described thus: Anticancer activity against human MDA-MB-468 cells assessed as cell growth at 1 uM incubated for 48 hrs by SRB assay. The assay is classed as functional. The note with it: read-out: Activity.
Assay [8] has as its system MDA-MB-468. The assay can be described thus: Anticancer activity against human MDA-MB-468 cells assessed as cell growth at 10 uM incubated for 48 hrs by SRB assay. The assay is classed as functional. The conditions noted are these: read-out: Activity.
Assay [9] concerns MDA-MB-468. The assay can be described thus: Anticancer activity against human MDA-MB-468 cells assessed as cell growth at 100 uM incubated for 48 hrs by SRB assay. The assay is classed as functional. The conditions noted are these: read-out: Activity.
The test system of assay [10] is MCF7. In words: Anticancer activity against human MCF7 cells assessed as cell growth at 0.1 uM incubated for 48 hrs by SRB assay. The assay is classed as functional. The note with it: read-out: Activity.
The test system of assay [11] is MCF7. In words: Anticancer activity against human MCF7 cells assessed as cell growth at 1 uM incubated for 48 hrs by SRB assay. It counts as functional. The conditions noted are these: read-out: Activity.
Assay [12] has as its system MCF7. In words: Anticancer activity against human MCF7 cells assessed as cell growth at 10 uM incubated for 48 hrs by SRB assay. It counts as functional. The conditions noted are these: read-out: Activity.
Assay [13] relates to MCF7. The assay can be described thus: Anticancer activity against human MCF7 cells assessed as cell growth at 100 uM incubated for 48 hrs by SRB assay. The assay is classed as functional. The conditions noted are these: read-out: Activity.
In assay [14] the test system is NCI-H226. In words: Anticancer activity against human NCI-H226 cells assessed as cell growth at 0.1 uM incubated for 48 hrs by SRB assay. The assay is classed as functional. The conditions noted are these: read-out: Activity.
Assay [15] relates to NCI-H226. In words: Anticancer activity against human NCI-H226 cells assessed as cell growth at 1 uM incubated for 48 hrs by SRB assay. The assay is classed as functional. The note with it: read-out: Activity.
In assay [16] the test system is NCI-H226. In words: Anticancer activity against human NCI-H226 cells assessed as cell growth at 10 uM incubated for 48 hrs by SRB assay. It counts as functional. The note with it: read-out: Activity.
The test system of assay [17] is NCI-H226. In words: Anticancer activity against human NCI-H226 cells assessed as cell growth at 100 uM incubated for 48 hrs by SRB assay. It counts as functional. The conditions noted are these: read-out: Activity.
Assay [18] concerns MDA-MB-435. In words: Anticancer activity against human MDA-MB-435 cells assessed as cell growth at 0.1 uM incubated for 48 hrs by SRB assay. It counts as functional. The conditions noted are these: read-out: Activity.
The subject of assay [19] is MDA-MB-435. In words: Anticancer activity against human MDA-MB-435 cells assessed as cell growth at 1 uM incubated for 48 hrs by SRB assay. It counts as functional. The note with it: read-out: Activity.
The subject of assay [20] is MDA-MB-435. In words: Anticancer activity against human MDA-MB-435 cells assessed as cell growth at 10 uM incubated for 48 hrs by SRB assay. It counts as functional. The note with it: read-out: Activity.
Assay [21] deals with MDA-MB-435. In words: Anticancer activity against human MDA-MB-435 cells assessed as cell growth at 100 uM incubated for 48 hrs by SRB assay. The assay is classed as functional. The conditions noted are these: read-out: Activity.
[22] abbreviates: read-out: LC50 (the source's name).

Consider `COc1cc(-c2nc3cc(F)ccc3o2)cc(OC)c1OC`, for which, in assay [1], the IC50 – broadly, the point on the concentration scale where inhibition reaches its midpoint – was found to be 16 µM.
Still for that read-out and setting: next, `COCOc1ccc(-c2nc3cc(F)ccc3s2)cc1OC`: 0.065 µM; `COc1ccc(-c2nc3cc(F)ccc3s2)c(OC)c1OC`: 0.023 µM; `COc1cc(-c2nc3ccc(F)cc3o2)cc(OC)c1OC`: 1.09 µM.
`COc1ccc(-c2coc3cc(F)ccc3c2=O)cc1OC`: in assay [1], the IC50 was 90.6 µM.
On to `COc1ccc(-c2coc3c(F)cccc3c2=O)cc1OC`, for which the IC50 in assay [1] worked out at 75.5 µM.
Still for that read-out and setting: under `COc1ccc(-c2nc3cc(Br)ccc3s2)cc1OC` stands 13.6 µM.
On the same count and under the same terms, under `COc1cc(-c2nc3cc(F)ccc3s2)cc(OC)c1OC` stands 0.0019 µM; under `O=c1c(-c2ccc(Cl)cc2)coc2ccccc12`, 64.9 µM.
Regarding `COc1ccc(-c2coc3cc(F)ccc3c2=O)cc1`, the IC50 in assay [1] was determined as 43.8 µM.
Take `COc1ccc(-c2nc3cc(F)ccc3s2)cc1I`: the IC50 in [1] is 0.82 µM.
Still for that read-out and setting: under `COc1ccc(-c2nc3cc(F)ccc3s2)cc1C` stands 0.048 µM.
`COc1ccc(-c2nc3cc(F)ccc3s2)cc1Br`: the IC50 in [1] stood at 0.85 µM.
As for `COc1ccc(-c2nc3cc(F)ccc3s2)cc1F`, the IC50 in assay [1] was determined as 0.87 µM.
Take `COc1ccccc1-c1nc2cc(F)ccc2o1`: the IC50 in assay [1] stood at 0.36 µM.
`COc1ccc(-c2nc3ccc(F)cc3o2)cc1`: in [1], the IC50 stood at 41 µM.
On the same count and under the same terms, under `Oc1ccc(-c2nc3cc(C(F)(F)F)ccc3s2)cc1` stands 13.8 µM; under `O=c1c(-c2ccc3c(c2)OCO3)coc2ccc(F)cc12`, 60 µM; under `COc1ccc(-c2nc3cc(F)ccc3s2)cc1`, 0.49 µM.
Still for that read-out and setting: next, `COc1cc(OC)cc(-c2nc3cc(F)ccc3s2)c1`: 1.23 µM; `c1ccc2sc(-c3ccc4c(c3)OCO4)nc2c1`: 57.8 µM.
In the case of `Cc1c(F)c(N)c2c(=O)cc(-c3ccc(N)c(F)c3)oc2c1F` [AMINOFLAVONE], in [1], the IC50 is 0.035 µM.
In the case of `COc1ccc(-c2nc3c(F)cccc3s2)cc1OC`, the IC50 in assay [1] worked out at 0.005 µM.
With `Fc1ccc2nc(-c3ccc4c(c3)OCO4)oc2c1`, in assay [1], the IC50 turned out to be 19.2 µM.
Turning to `Cc1cc(-c2nc3cc(F)ccc3s2)ccc1N`, the IC50 in [1] worked out at 0.0001 µM.
As to `COc1ccc2nc(-c3ccc(O)cc3)sc2c1`, in assay [1], the IC50 was determined as 45.8 µM.
For the compound `COc1ccc(-c2coc3cc(F)c(F)cc3c2=O)cc1OC`, the IC50 in assay [1] came to 41.5 µM.
Turning to `Fc1ccc2sc(-c3ccc4c(c3)OCO4)nc2c1`, in assay [1], the IC50 came to 20.7 µM.
As for `COc1ccc(-c2nc3ccc(F)cc3s2)cc1OC`, the IC50 in [1] is 0.062 µM.
Take `Oc1ccc(-c2nc3ccc(Br)cc3s2)cc1`: in assay [1], the IC50 came to 4.16 µM.
For `COc1cc(OC)cc(-c2nc3cc(F)ccc3o2)c1`, the IC50 in [1] was 45.4 µM.
Still for that read-out and setting: under `Oc1cccc(-c2nc3cc(F)ccc3s2)c1` stands 0.57 µM; under `COc1ccc(-c2nc3cc(F)ccc3o2)cc1OC`, 0.83 µM; under `Oc1ccc(-c2nc3cc(F)ccc3s2)cc1O`, 0.72 µM.
As to `CCOc1ccc(-c2nc3cc(F)ccc3s2)cc1OCC`, in [1], the IC50 was 0.0007 µM.
On the same count and under the same terms, next, `COc1ccc(-c2coc3c(F)cc(F)cc3c2=O)cc1OC`: 46.7 µM; `COc1cc(OC)cc(-c2nc3ccc(F)cc3o2)c1`: 3.72 µM.
In the case of `COc1ccc(-c2coc3ccccc3c2=O)cc1OC`, the IC50 in assay [1] came out at 88.1 µM.
Consider `CS(=O)(=O)c1ccc2nc(-c3ccc(O)cc3)sc2c1`, for which the IC50 in [1] was found to be 62.3 µM.
As to `COc1ccc(-c2cc(=O)c3ccc(F)cc3o2)cc1OC`, the half-maximal inhibitory concentration (IC50) in assay [1] came out at 27.9 µM.
The same measure, in the same setting: next, `O=c1c(-c2ccc(Br)cc2)coc2ccccc12`: 8.8 µM.
On the same count and under the same terms, next, `COc1cccc(-c2nc3ccc(F)cc3o2)c1`: 35.1 µM; `COc1ccc(-c2nc3cc(Cl)ccc3s2)cc1OC`: 27.9 µM; `COc1cccc(OC)c1-c1nc2cc(F)ccc2o1`: 58.1 µM.
For the compound `COc1cccc(OC)c1-c1nc2ccc(F)cc2o1`, the IC50 in assay [1] was 90.7 µM.
Same read-out and setting: under `COc1ccc(-c2nc3ccc(F)cc3o2)c(OC)c1` stands 69.9 µM.
Same read-out and setting: under `Oc1ccc(-c2nc3cc(F)ccc3s2)cc1` stands 0.4 µM.
Turning to `Fc1ccc2oc(-c3ccc4c(c3)OCO4)nc2c1`, the IC50 in [1] is 61.4 µM.
Same read-out and setting: next, `COc1ccc(-c2coc3ccc(F)cc3c2=O)cc1OC`: 93.1 µM; `COc1ccc(-c2nc3cc(F)ccc3o2)cc1`: 22.7 µM; `Oc1ccc(-c2nc3ccc(Cl)cc3s2)cc1`: 26.5 µM.
Turning to `COc1cc(-c2nc3cc(F)ccc3s2)cc(O)c1OC`, the IC50 in assay [1] was found to be 0.653 µM.
Same read-out and setting: under `COc1ccc(-c2cc(=O)c3cc(F)ccc3o2)cc1OC` stands 83.4 µM.
With `O=c1c(-c2cccc([N+](=O)[O-])c2)coc2ccccc12`, the IC50 in [1] came to 7.9 µM.
On the same count and under the same terms, next, `Cc1ccc(-c2nc3cc(F)ccc3s2)cc1O`: 0.5 µM; `COc1ccc(-c2nc3cc(F)ccc3s2)cc1Cl`: 0.76 µM; `COc1ccc(-c2nc3ccccc3s2)cc1OC`: 52.7 µM.
In the case of `CCOc1cc(-c2nc3cc(F)ccc3s2)ccc1OC`, in [1], the 50% inhibitory concentration (IC50) turned out to be 0.08 µM.
As for `COc1ccccc1-c1nc2ccc(F)cc2s1`, the IC50 in assay [1] worked out at 0.82 µM.
The same measure, in the same setting: next, `COc1cccc(-c2nc3cc(F)ccc3o2)c1`: 39.5 µM.
The same measure, in the same setting: under `COc1ccc(-c2coc3c(F)c(F)ccc3c2=O)cc1OC` stands 47.2 µM; under `COc1ccc(-c2coc3ccccc3c2=O)cc1`, 81.4 µM.
With `COc1cccc2c1C(=O)c1c(O)c3c(c(O)c1C2=O)C[C@@](O)(C(=O)CO)C[C@@H]3O[C@H]1C[C@H](N)[C@H](O)[C@H](C)O1` [DOXORUBICIN HYDROCHLORIDE], the GI50 (usually the concentration at which growth is held to half of that of the control) was 10.5 µM in assay [2], less than 0.1 µM in [3], less than 0.1 µM in assay [4] and less than 0.1 µM in assay [5]. For the same compound, the TGI (usually the concentration giving total growth inhibition) in assay [2] stood at 50.4 µM; in assay [3], 90.4 µM; in assay [4] it was 43.4 µM; in [5], 43.2 µM. Also, the CC50 was 90.2 µM in assay [2] (setting [22]) and more than 100 µM in assay [3] (setting [22]). Also, the growth at 0.1 µM in [6] is 83%; in [10] it was 28.5%; in assay [14], 57.4%; in assay [18] it was 50.8%. The growth at 1 µM in [7] is 64.5%; in assay [11] it was 17.2%; in assay [15] it was 12.7%; in assay [19], 42.8%. Also, the growth at 10 µM in [8] is 22%; in [12] it was 10.5%; in assay [16] it was 8.1%; in assay [20], -26.6%. Also, the growth at 100 µM was -60.9% in assay [9], -1.6% in assay [13], -38.3% in assay [17] and -30.9% in assay [21].
